Measured values reported in ChEMBL document CHEMBL1154855 (Eur J Med Chem, 2010).

System: Vaccinia virus
Test: Antiviral activity against Vaccinia virus infected in HEL cells assessed as protection from virus-induced cytopathogenicity after 2 to 3 days by MTT assay
Format: functional, organism-based
Conditions: Orthopoxvirus vaccinia

SMILES | EC50
COc1cc(/C=C/C(=O)CC(=O)/C=C/c2ccc(OC(=O)CCC(NC(=O)c3ccc(NCc4cnc5nc(N)[nH]c(=O)c5n4)cc3)C(=O)O)c(OC)c2)ccc1OC(=O)CCC(NC(=O)c1ccc(NCc2cnc3nc(N)[nH]c(=O)c3n2)cc1)C(=O)O (stereo not drawn) | > 82 nM
CCCCCCCCCC(=O)Oc1ccc(/C=C/C(=O)CC(=O)/C=C/c2ccc(OC(=O)CCCCCCCCC)c(OC)c2)cc1OC | > 147 nM
COc1cc(/C=C/C(=O)CC(=O)/C=C/c2ccc(OC(=O)[C@H](Cc3ccccc3)NC(=O)[C@@H](N)Cc3c[nH]c4ccccc34)c(OC)c2)ccc1OC(=O)[C@H](Cc1ccccc1)NC(=O)[C@@H](N)Cc1c[nH]c2ccccc12 | > 38 nM
COc1cc(/C=C/C(=O)C(CCOC(=O)CCC(NC(=O)c2ccc(NCc3cnc4nc(N)[nH]c(=O)c4n3)cc2)C(=O)O)C(=O)/C=C/c2ccc(O)c(OC)c2)ccc1O (stereo not drawn) | > 11 nM
COc1cc(/C=C/C(=O)CC(=O)/C=C/c2ccc(OCCOC(=O)CCC(NC(=O)c3ccc(NCc4cnc5nc(N)[nH]c(=O)c5n4)cc3)C(=O)O)c(OC)c2)ccc1O (stereo not drawn) | > 119 nM
O=c1[nH]c(=O)n([C@H]2C[C@H](O)[C@@H](CO)O2)cc1/C=C/Br [BRIVUDINE] | 2000 nM
Nc1nc2c(ncn2COC(CO)CO)c(=O)[nH]1 [GANCICLOVIR] | > 100000 nM
NC(=O)c1ncn([C@@H]2O[C@H](CO)[C@@H](O)[C@H]2O)n1 [RIBAVIRIN] | 85000 nM
